# Results reported in US12642875B2, “Liposomal nanocarrier delivery system for targeting active CD44 molecule, preparation method therefor, and uses thereof” (Beijing Inno Medicine Co., Ltd., priority 2018, dated 2026).
# Legend:
# [1] = test system: ApoE−/− mouse model of arterial vulnerable plaque; test: In vivo therapeutic effect of atorvastatin delivery systems on arterial vulnerable plaques (Experimental Example 4, carotid MRI); parameters: species or system mice; conditions: once every other day, 5 treatments, control progressed by 34.87%
# Method: (§1) Except for the control group of vulnerable plaque model, the treatment group was treated once every other day for a total of 5 treatments. For animals in each group, carotid MRI scans were performed before and after treatment to detect plaque and lumen area, and the percentage of plaque progression was calculated. Percentage of plaque progression=(plaque area after treatment−plaque area before treatment)/lumen area.
# [2] = test system: ApoE−/− mouse model of arterial vulnerable plaque; test: In vivo radioisotopic tracing of vulnerable plaque (Experimental Example 8); parameters: species or system mice; conditions: tail vein, tracer 2 mSv/kg, imaging 2 hours after administration
# Method: (§2) • (1) A normal saline solution of free rosuvastatin was prepared, and the liposome nano delivery systems loaded with radioisotopic tracer and therapeutic agent was prepared by the method described in the above Example 11. • (2) Establishment of ApoE−/− mouse model of arterial vulnerable plaque according to Experimental Example 4. • (3) Trace of vulnerable plaque in experimental animals:
# The experimental animals were randomly divided into the following groups, 6 mice in each group: • Free F-FDG group: the dosage of F-FDG was 2 mSv/kg body weight; • LP1-(F-FDG)-OPN group: the dosage of F-FDG was 2 mSv/kg body weight; • LP1-(99mTc)-OPN group: the dosage of 99mTc was 2 mSv/kg body weight; • LP1-(I-131)-OPN group: the dosage of 1-131 was 2 mSv/kg body weight.
# Animals in each experimental group were injected with the corresponding tracer through the tail vein, and radioisotopic imaging was performed before administration and 2 hours after administration to observe the identification of atherosclerotic vulnerable plaque in each group.
# [3] = test system: ApoE−/− mouse model of arterial vulnerable plaque; test: In vivo therapeutic effect of rosuvastatin delivery systems on arterial vulnerable plaques (Experimental Example 3, carotid MRI); parameters: species or system mice; conditions: once every other day, 5 treatments, control progressed by 36.23%
# Method: • (1) A normal saline solution of free rosuvastatin was prepared, and the liposome nanocarrier delivery systems loaded with therapeutic agent were prepared by the method described in the above Example 1-3. • (2) Establishment of ApoE−/− mouse model of arterial vulnerable plaque:
# SPF-grade ApoE−/− mice (42 mice, 5-6 weeks old, weight 20±1 g) were taken as experimental animals. The mice were fed with an adaptive high-fat diet (fat 10% (w/w), cholesterol 2% (w/w), sodium cholate 0.5% (w/w), and the rest being normal feed for mice) for 4 weeks, and then anaesthetized via intraperitoneal injection of 1% sodium pentobarbital (prepared by adding […] of sodium pentobarbital to 100 ml of normal saline) at a dose of 40 mg/kg. Then, the mice were fixed on the surgical plate in the supine position, disinfected around the neck with 75% (v/v) alcohol, the neck skin was cut longitudinally, and the anterior cervical gland was bluntly separated, and the beating left common carotid artery can be observed on the left side of the trachea. […]
# as §1, with “Percentage of plaque progression=(plaque area after treatment−plaque area before treatment)/lumen area.” left out
# [4] = test system: ApoE−/− mouse model of arterial vulnerable plaque; test: In vivo therapeutic effect of LP2-(AuNP/R)-OPN on arterial vulnerable plaques (Experimental Example 5, carotid MRI); parameters: species or system mice; conditions: once every other day, 5 treatments, control progressed by 31.23%
# Method: as §2, with “CT” for “radioisotopic”, “7.” for “11.”
# as §1
# [5] = oral, clinical practice; cited from earlier work
# [6] = target: T1, CD44 on the surface of endothelial cells at arterial vulnerable plaques (Mus musculus, UniProt P15379); test: Binding force integration of amino fluorescein labelled ligand/antibody, flow cytometry MFI, endothelial cells; parameters: species or system mice; conditions: normal cells set to 1; labelled ligand/antibody 10 mg/ml, 30 minutes, 37° C.
# T1 construct: from tissue; host or cells: endothelial cells from arterial vulnerable plaques of model mice
# T1 sequence (P15379 23-778): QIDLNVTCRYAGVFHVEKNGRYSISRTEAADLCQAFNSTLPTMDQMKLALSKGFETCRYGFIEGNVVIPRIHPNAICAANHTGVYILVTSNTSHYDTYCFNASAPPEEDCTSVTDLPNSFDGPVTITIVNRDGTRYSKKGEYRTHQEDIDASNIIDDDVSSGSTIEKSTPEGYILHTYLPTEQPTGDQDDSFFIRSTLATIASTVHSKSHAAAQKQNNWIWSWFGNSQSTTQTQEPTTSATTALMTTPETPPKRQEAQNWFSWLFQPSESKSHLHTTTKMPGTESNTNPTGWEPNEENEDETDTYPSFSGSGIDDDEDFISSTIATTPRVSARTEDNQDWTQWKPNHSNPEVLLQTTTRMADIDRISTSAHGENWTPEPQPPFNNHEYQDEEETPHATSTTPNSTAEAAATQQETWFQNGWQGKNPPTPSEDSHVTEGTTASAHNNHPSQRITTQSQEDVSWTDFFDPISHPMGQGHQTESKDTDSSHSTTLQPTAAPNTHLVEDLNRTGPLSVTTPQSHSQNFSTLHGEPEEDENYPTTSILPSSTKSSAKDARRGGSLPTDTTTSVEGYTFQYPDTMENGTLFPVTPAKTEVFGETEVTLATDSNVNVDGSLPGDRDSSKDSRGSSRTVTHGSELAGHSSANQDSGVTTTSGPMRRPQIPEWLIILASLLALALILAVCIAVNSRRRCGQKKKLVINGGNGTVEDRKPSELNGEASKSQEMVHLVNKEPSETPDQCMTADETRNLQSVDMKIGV
# Method: Endothelial cells at normal arterial vessel walls and endothelial cells at arterial vulnerable plaques of model mice were taken, and the ligand/antibody labeled with amino fluorescein at a concentration of 10 mg/ml was added, the sample was cultured in Dulberic modified Eagle's medium (DMEM) (containing calf serum with a volume fraction of 10%, 100 U/ml penicillin, 100 U/ml streptomycin) at 37° C., in 5% CO2 incubator. After 30 minutes, the mean fluorescence intensity (MFI) was determined by flow cytometry (CytoFLEX, Beckman Coulter, U.S.A.), and the binding force integration of FL-ligand/antibody on the surface of both cells was calculated (the binding force of CD44 of endothelial cells of normal arterial vessel walls to ligand/antibody is set to 1).
# [7] = target: T2, CD44 on the surface of macrophages inside arterial vulnerable plaques (Mus musculus, UniProt P15379); test: Binding force integration of amino fluorescein labelled ligand/antibody, flow cytometry MFI, macrophages; parameters: species or system mice; conditions: macrophages outside the plaque set to 1; labelled ligand/antibody 10 mg/ml, 30 minutes, 37° C.
# T2 construct: from tissue; host or cells: macrophages from inside arterial vulnerable plaques of model mice
# T2 sequence (P15379 23-778): T1 sequence (P15379 23-778)
# Method: Intraperitoneal macrophages and macrophages inside arterial vulnerable plaques of model mice were taken, and the ligand/antibody labeled with amino fluorescein at a concentration of 10 mg/ml was added, the sample was cultured in DMEM (containing calf serum with a volume fraction of 10%, 100 U/ml penicillin, 100 U/ml streptomycin) at 37° C., in 5% CO2 incubator.
# [8] = intragastric, 10 mg rosuvastatin per kg
Molecule,"binding force integration of CD44 on the surface of endothelial cells at vulnerable plaques, relative to endothelial cells of normal arterial vessel walls [6]","binding force integration of CD44 on the surface of macrophages at vulnerable plaques, relative to macrophages outside the plaque [7]",also measured
CC(C)c1c(C(=O)Nc2ccccc2)c(-c2ccccc2)c(-c2ccc(F)cc2)n1CC[C@@H](O)C[C@@H](O)CC(=O)O [atorvastatin],,,"percentage of plaque progression ([1]; intragastric, 20 mg atorvastatin per kg): 33.21%; percentage of plaque progression ([1]; intravenous, 1.2 mg atorvastatin per kg): 32.98%"
"OC[C@H]1OC(O)[C@H]([18F])[C@@H](O)[C@@H]1O (stereo partly drawn) [free F-FDG, fluorine 18 (18F)-labeled fludeoxyglucose]",,,in vivo tracing effect on arterial vulnerable plaques (radioisotopic imaging) [2]: doesn't show any tracing effect
CC(C)c1nc(N(C)S(C)(=O)=O)nc(-c2ccc(F)cc2)c1/C=C/[C@@H](O)C[C@@H](O)CC(=O)O [rosuvastatin],,,"percentage of plaque progression [3, 8]: 33.9%; percentage of plaque progression ([3]; intravenous, 0.66 mg rosuvastatin per kg): 32.46%; percentage of plaque progression [4, 8]: 30.9%; percentage of plaque progression ([4]; intravenous, 0.67 mg rosuvastatin per kg): 25.34%; bioavailability when administered orally [5]: about 20%"
collagen,21 times,38 times,
fibronectin,18 times,35 times,
hyaluronic acid [HA],approximately 24 times,approximately 40 times,
laminin,16 times,37 times,
osteopontin: natural ligand for CD44,17 times,33 times,
